Test results as given in ChEMBL document CHEMBL5131458, “Design, synthesis and human carbonic anhydrase I, II, IX and XII inhibitory properties of 1,3-thiazole sulfonamides” (Bioorg Med Chem Lett, 2022).

Molecular target: Carbonic anhydrase 9 (Homo sapiens, UniProt Q16790)
Assay: Inhibition of recombinant human carbonic anhydrase 9 incubated for 15 mins by phenol red based stopped-flow CO2 hydration assay

SMILES	Ki [nM]
CCCCCCOC(=O)c1csc(Nc2ccc(S(N)(=O)=O)cc2)n1	70.6
CCCCCCCOC(=O)c1csc(Nc2ccc(S(N)(=O)=O)cc2)n1	74.3
NS(=O)(=O)c1ccc(Nc2nc(C(=O)OCCCCc3ccccc3)cs2)cc1	86.8
CC(CO)OC(=O)c1csc(Nc2ccc(S(N)(=O)=O)cc2)n1 (stereo not given)	37.9
NS(=O)(=O)c1ccc(Nc2nc(C(=O)OCCO)cs2)cc1	43.2
CCCCOC(=O)c1csc(Nc2ccc(S(N)(=O)=O)cc2)n1	71.1
COCCOC(=O)c1csc(Nc2ccc(S(N)(=O)=O)cc2)n1	35.1
CC(C)OC(=O)c1csc(Nc2ccc(S(N)(=O)=O)cc2)n1	90.3
NS(=O)(=O)c1ccc(Nc2nc(C(=O)OCCOCCO)cs2)cc1	26.8

The next lines start with the values.

Ki [nM]	SMILES
150	NS(=O)(=O)c1ccc(Nc2nc(C(=O)OCCOc3ccccc3)cs2)cc1
72	CCCCCOC(=O)c1csc(Nc2ccc(S(N)(=O)=O)cc2)n1
37.9	CC(O)COC(=O)c1csc(Nc2ccc(S(N)(=O)=O)cc2)n1 (stereo not given)
51.2	CCOCCOC(=O)c1csc(Nc2ccc(S(N)(=O)=O)cc2)n1
78.9	CCCCCCCCOC(=O)c1csc(Nc2ccc(S(N)(=O)=O)cc2)n1
49.9	CCCOC(=O)c1csc(Nc2ccc(S(N)(=O)=O)cc2)n1
